According to patent publication US20090257979A1, “Novel Inhibitors of Hepatitis C Virus Replication” (INTERMUNE, INC., priority 2008, published 2009):

Columns and labels:
HCV Replicon = HCV Replicon inhibition; format: cell-based; details: Hepatitis C virus
NS5B polymerase protein = target: T1, NS5B polymerase protein (Hepatitis C virus genotype 1a, UniProt P27958); assay: biochemical; details: pre-incubated 37° C. 30 minutes; RdRp reaction 90 minutes at 37° C.; read-out: HCV NS5B inhibition EC50
T1 construct: pre-incubated with the RNA template and NS5B polymerase protein; Replizyme
T1 sequence (P27958 2421-3011): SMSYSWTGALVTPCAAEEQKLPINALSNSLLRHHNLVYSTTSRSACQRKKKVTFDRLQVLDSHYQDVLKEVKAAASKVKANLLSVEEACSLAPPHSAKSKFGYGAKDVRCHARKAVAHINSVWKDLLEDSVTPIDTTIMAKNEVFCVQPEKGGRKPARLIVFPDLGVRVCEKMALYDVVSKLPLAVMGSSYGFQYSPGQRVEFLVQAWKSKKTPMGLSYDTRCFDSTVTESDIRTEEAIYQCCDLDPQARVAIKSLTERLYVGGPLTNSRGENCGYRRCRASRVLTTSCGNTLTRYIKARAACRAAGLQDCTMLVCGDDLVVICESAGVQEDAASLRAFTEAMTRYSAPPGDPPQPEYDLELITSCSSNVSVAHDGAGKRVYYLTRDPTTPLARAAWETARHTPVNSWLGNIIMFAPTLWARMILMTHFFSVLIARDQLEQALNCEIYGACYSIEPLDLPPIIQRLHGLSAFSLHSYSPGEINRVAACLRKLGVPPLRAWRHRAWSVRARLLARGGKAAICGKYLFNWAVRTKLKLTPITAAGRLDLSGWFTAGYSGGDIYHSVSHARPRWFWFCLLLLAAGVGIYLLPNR
Method: The compounds were tested in the Replizyme HCV heterotemplate radioactive RNA-dependent RNA-polymerase (RdRp) assay. The test compounds were pre-incubated with the RNA template and NS5B polymerase protein at 37° C. for 30 minutes. The RdRp reaction was initiated with the addition of the NTPs to the buffer-NS5B-compound mix, and was allowed to proceed for 90 minutes at 37° C. Control reactions included: no enzyme, 5% DMSO (test compound solvent), no compound/solvent, Cordycepin-TP and HCV-796 (IC50 values used as a reference inhibition). Radioactive products were collected by applying the stopped reaction to DE-81 paper, air dried prior to washing with buffer comprising NaH2PO4 and sodium pyrophosphate to remove unincorporated ^32P-GTP in the NTP mix, and rinsed with dH2O followed by 100% ethanol. The DE-81 paper was air dried, squares cut out and placed in scintillation tubes for counting.

Row | SMILES | EC50 (HCV Replicon) | EC50 (NS5B polymerase protein)
1 | CC(C)CCc1c(=O)c(C2=NS(=O)(=O)c3cc(NS(=O)(=O)C4CC4)ccc3N2)c(O)n2ccccc12 [Compound 226] | < 100 nM | < 100 nM
2 | CS(=O)(=O)Nc1ccc2c(c1)S(=O)(=O)N=C(c1c(O)n3ccccc3c(CCC3CC3)c1=O)N2 [Compound 253] | 100 to 1000 nM | 1000 to 10000 nM
3 | CS(=O)(=O)Nc1ccc2c(c1)S(=O)(=O)N=C(c1c(O)n3ccccc3c(Cc3ccc(F)cc3)c1=O)N2 [Compound 228] | < 100 nM | < 100 nM
4 | CC(C)CCn1cc(C2=NS(=O)(=O)c3ccccc3N2)c2ccccc21 [Compound 201] | 10000 to 50000 nM | 10000 to 50000 nM
5 | CC(C)CCc1c(=O)c(C2=NS(=O)(=O)c3cc(NS(C)(=O)=O)ccc3N2)c(O)n2cc(F)ccc12 [Compound 250] | < 100 nM | < 100 nM
